Like-named read-outs stand apart in the source and are kept apart here. Marks after values point to notes of the source that are not given here.
How the values were obtained:
[1] = system: MCF-7 cells; assay: Proliferation of human breast cancer MCF-7 cells (DNA content); assay type: cell-based; conditions: for IC50: Homo sapiens, read-out: Inhibition of 1nM E2 stimulation of DNA by tested compounds IC50
Protocol: The MCF-7 human breast adenocarcinoma cell line was derived from the pleural effusion of a patient. MCF-7 cells were used between passages 148 and 165 and subcultured weekly
Cells in their late logarithmic growth phase were harvested with 0.1% pancreatin (Sigma) and resuspended in the appropriate medium containing 50 ng bovine insulin/ml and 5% (v/v) FBS treated twice with dextran-coated charcoal to remove endogenous steroids. Cells were plated in 24-well Falcon plastic culture plates (2 cm^2/well) at the indicated density and allowed to adhere to the surface of the plates for 72 h. Thereafter, medium was replaced with fresh medium containing the indicated concentrations of compounds diluted from 1000×stock solutions in 99% redistilled ethanol in the presence or absence of E2. Control cells received only the ethanolic vehicle (0.1% EtOH,v/v). Cells were incubated for the specified time intervals with medium changes at 2-or 3-day intervals. Cell number was determined by measurement of DNA content.
Dose-response curves as well IC50 values were calculated using a weighted iterative nonlinear least-squares regression. All results are expressed as means±SEM.

[2] = system: ovariectomized rats supplemented with 17β-estradiol; assay: EM-652.HCl with oral 17β-estradiol for 2 weeks in OVX rats: uterus, endometrial epithelium, vagina, serum cholesterol (Example 10); assay type: in vivo, Sprague-Dawley rats; conditions: for Reversal of the effect of E2 on uterine weight: 2 weeks
Protocol: Ten to twelve week-old female Sprague-Dawley rats (Crl:CD(SD)Br) (Charles River Laboratory, St-Constant, Canada) weighing 215-265 g at time of ovariectomy were used. The animals were housed individually in an environmentally-controlled room (temperature: 22±3° C.; humidity: 50±20%; 12-h light-12-h dark cycles, lights on at 07:15 h). The animals were allowed free access to tap water and a certified rodent feed (Lab Diet 5002 (pellet), Ralston Purina, St-Louis, Mo.). The experiment was conducted in an animal facility approved by the Canadian Council on Animal Care (CCAC) and the Association for Assessment and Accreditation of Laboratory Animal Care (AAALAC) in accordance with the CCAC Guide for Care and Use of Experimental Animals.
On the first day of the study, the animals of the appropriate groups were bilaterally ovariectomized (OVX) under isoflurane anesthesia. The tested compounds were then given once daily by oral gavage as a suspension in 0.4% methylcellulose (0.5 ml/rat) from day 1 to day 14 of the study. Animals of groups 1 and 2 received the vehicle alone during the same time period. On day 15 of the study, 4 animals per group were perfused with 10% buffered formalin and tissues were processed for histological examination. The other animals were killed by exsanguination at the abdominal aorta under isoflurane anesthesia. The uterus and vagina were removed, stripped of remaining fat and weighed. A specimen from each uterus was fixed in 10% buffered formalin for determination of the height of endometrial epithelial cells using a computerized-assisted program (Software Image-Pro Plus).
Total cholesterol was measured on serum samples collected from overnight fasted animals using a Boehringer Mannheim Diagnostic Hitachi 911 Analyzer (Boehringer Mannheim Diagnostic Laboratory Systems).

[3] = system: human Ishikawa cells; assay: Alkaline phosphatase activity in human endometrial adenocarcinoma Ishikawa cells; assay type: cell-based; conditions: 5 days
Protocol: The human Ishikawa cell line derived from a well differentiated endometrial adenocarcinoma was kindly provided by Dr. Erlio Gurpide, The Mount Sinai Medical Center, New York, N.Y. The Ishikawa cells were routinely maintained in Eagle's Minimum Essential Medium (MEM) containing 5% (vol/vol) FBS (Fetal Bovine Serum) and supplemented with 100 U/ml penicillin, 100 μg/ml streptomycin, 0.1 mM non-essential amino acids solution. Cells were plated in Falcon T75 flasks at a density of 1.5×10^6 cells at 37° C.
Twenty four hours before the start of the experiment, the medium of near confluent Ishikawa cells was replaced by fresh estrogen-free basal medium (EFBM) consisting of a 1:1 (v:v) mixture of phenol red-free Ham's F-12 and Dulbecco's Modified Eagle's Medium (DMEM) supplemented with 100 U/mL penicillin, 100 μg/mL streptomycin, 2 mM glutamine, and 5% FBS treated twice with dextran-coated charcoal to remove endogenous steroids. Cells were then harvested by 0.1% pancreatin (Sigma) and 0.25 mM HEPES, resuspended in EFBM and plated in Falcon 96, well flat-bottomed microtiter plates at a density of 2.2×10^4 cells/well in a volume of 100 μl and allowed to adhere to the surface of the plates for 24 h. Thereafter, medium was replaced with fresh EFBM containing the indicated concentrations of compounds in a final volume of 200 μl. Cells were incubated for five days, with a medium change after 48 h.
At the end of the incubation period, microtiter plates were inverted and growth medium was decanted. The plates were rinsed with 200 μl by well of PBS (0.15M NaCl, 10 mM sodium phosphate, pH 7.4). PBS was then removed from the plates while carefully leaving some residual PBS, and the wash procedure was repeated once. The buffered saline was then decanted, and the inverted plates were blotted gently on a paper towel. Following replacement of the covers, the plates were placed at −80° C. for 15 min followed by thawing at room temperature for 10 min. […] Plates were monitored at 405 nm in an enzyme-linked immunosorbent assay plate reader (BIO-RAD, model 2550 EIA Reader).

[4] = system: endometrial epithelium; assay: Thickness of uterine (endometrial) epithelial cells in the mice of Example 8; assay type: in vivo, nude mice; conditions: for Endometrial epithelium thickness: 161 days
Excerpt: The 17 groups included two control groups (OVX and OVX+Estrone), seven groups supplemented with an estrone implant and treated with an antiestrogen and eight other groups that received an antiestrogen alone. The estrone implants were then removed from the animals in the ovariectomized control group (OVX) and in groups that were to receive the antiestrogen alone. […] Tamoxifen was purchased from […], Israel) while toremifene citrate was purchased from Orion (Espoo, Finland). […] Animals in both control groups received 0.2 ml of the vehicle alone. The antiestrogen suspensions at the appropriate concentration were prepared each month, stored at 4° C. and used under constant agitation. Powder stock were hermetically stored at 4° C. […] After 161 days of treatment, the remaining animals were anesthetized with isoflurane and killed by exsanguination. […] The uteri were prepared to evaluate endometrial thickness by image analysis performed with Image Pro-Plus (Media Cybernetics, Maryland, USA). […] Hematoxylin- and eosin-stained sections of mice uteri were analysed. […] Mean epithelial cell height was measured in all animals of each group.

[5] = EM-652.HCl 3 mg/kg + E2 2 mg/kg
[6] = EM-652.HCl 10 mg/kg + E2 2 mg/kg

CC1=C(c2ccc(O)cc2)[C@H](c2ccc(OCCN3CCCCC3)cc2)Oc2cc(O)ccc21.Cl [EM-652.HCl, (S)-(+)-7-hydroxy-3-(4′-hydroxyphenyl)-4-methyl-2-(4″-(2′″-piperidinoethoxy)phenyl)-2H-1-benzopyran hydrochloride]
IC50 ([1]; MCF7, MCF-7, Experiment 2): 0.205 nM
IC50 ([1]; MCF7, MCF-7, Experiment 1): 0.796 nM
Maximal stimulation of DNA by tested compounds ([1]; MCF-7, Experiment 1): N.S.
Stimulation of DNA by tested compounds ([1]; MCF-7, Experiment 2): N.S.
Effect on the inhibitory action of E2 on serum cholesterol ([2]; EM-652.HCl 0.01 mg/kg to 0.3 mg/kg): no statistically significant effect
Reduction of the effect of E2 on serum cholesterol ([2]; EM-652.HCl 1.0 mg/kg): 36%
Reduction of the effect of E2 on serum cholesterol ([2]; EM-652.HCl 3.0 mg/kg): 30%
Prevention of E2-stimulated endometrial epithelial height [2, 5]: 83%
Reversal of the effect of E2 on uterine weight [2, 5]: 84%
Inhibition of the stimulatory effect of E2 on vaginal weight ([2]; EM-652.HCl 3 mg/kg, statistically non significant): 50%
Effect on the effect of E2 on vaginal weight ([2]; EM-652.HCl 10 mg/kg): complete reversal
Reduction of the effect of E2 on serum cholesterol ([2]; EM-652.HCl 10 mg/kg): 50%
Prevention of E2-stimulated endometrial epithelial height [2, 6]: 93%
Reversal of the effect of E2 on uterine weight [2, 6]: 87%
Inhibitory effect on E2-stimulated vaginal weight ([2]; EM-652.HCl up to 1 mg/kg): no significant inhibitory effect
Maximal inhibition of 1 nM E2-induced stimulation of alkaline phosphatase ([3]; 1 nM E2): 98.97 ± 0.174 (18)
IC50 ([3]; Homo sapiens, 120 h, 1 nM E2, read-out: Inhibition of 1 nM E2-induced stimulation of alkaline phosphatase IC50): 1.52 ± 0.22 nM
Emax ([3]; Homo sapiens, 120 h, read-out: Maximal stimulation of alkaline phosphatase, % of 1 nM E2 stimulation): 1.88 ± 0.26%
Inhibition of the stimulatory effect of estrone on epithelial height ([4]; 50 μg daily oral + estrone): 70%
Height of uterine epithelial cells, of the OVX control group value ([4]; 200 μg daily, absence of estrone): 114%
Endometrial epithelium thickness ([4]; OVX + E1 + antiestrogen 50 μg daily): 25.06^b ± 0.07 μm
Endometrial epithelium thickness ([4]; OVX + antiestrogen 200 μg daily, no estrone): 20.79 ± 0.10 μm

From patent publication US20030040510A1, “Selective estrogen receptor modulators in combination with estrogens” (Endorecherche, Inc., priority 2000, published 2003)
